In data set [1] the test system is GBM patient-derived G4T cells. The data set is described as follows: Orthotopic GBM patient-derived G4T xenograft. It counts as in vivo, NSG mice. As to conditions: single agent or with TMZ; p<0.001. The procedure:
In a separate study, NSG mice (n=8) orthotopically engrafted with GBM patient-derived G4T cells were administered with vehicle, compound 1, TMZ, and co-treatment of compound 1 and TMZ, respectively, as shown in FIG. 6B. The disease burden of each of the treatment groups was measured by bioluminescent whole-body imaging.
(In general: A xenograft is tissue or cells of one species grown in another, often human tumour cells in immunodeficient mice.)

Data set [2] concerns phosphorylated Rb proteins (pRb Ser780, pRbSer795, pRb807/811). The data set is described as follows: Western blot analysis of Rb phosphorylation. It counts as cell-based. To be noted: 24 h treatment, FIG. 3A. As to the method:
Cells were seeded at a density of 3×10^5 with 10 mL fresh medium on a sterile culture dish and incubated at 37° C. 5% CO2 for overnight prior to compound treatment. After 24 h, cells were harvested with PBS, centrifuged at 300×g for 5 mins, and lysed with 100 μL lysis buffer (25 mM 4-(2-hydroxyethyl)-1-piperazineethanesulphonic acid, 300 mM sodium chloride, 1.5 mM magnesium chloride, 0.5% sodium deoxycholate, 20 mM p-glycerophosphate, 1% Triton X-100, 0.1% sodium dodecyl sulphate, 0.2 mM EDTA, 0.5 mM dithiothreitol, 1 mM sodium orthovanadate and 25× protease inhibitor cocktail). Protein lysate was collected after 10 mins of maximum speed centrifugation at 4° C. The protein concentration of cell lysates was determined through performing a BSA standard curve using the Bio-Rad DC protein assay kit II (Bio-Rad, Sydney, NSW, Australia) according to the manufacturer's protocol. 30 μg protein was measured, mixed with 3× loading buffer and denatured at 95° C. for 5 mins using T100 thermal cycler (Bio-Rad). Molecular mass of each sample was then separated by gel electrophoresis on a 4-20% polyacrylamide gel at 120V for 1 h. The resolved proteins were transferred onto nitrocellulose membranes and blocked with 5% skimmed milk in Tris-buffered saline and Tween 20 (TBST) for 1 h at room temperature. […] Band intensity was determined using a ChemiDoc™ multiplexing imaging system (Bio-Rad). […]
For orientation: In western blotting, separated proteins are transferred to a membrane and probed.

In another data set the test system is MV4-11. As to the kind of experiment: Resazurin proliferation assay, leukaemia cell line. It counts as cell-based. To be noted: Homo sapiens, 72 h, read-out: Antiproliferative activity GI50 MV4-11. From the text:
(§1) Representative compounds from Example 1, were subjected to standard MTT (3-(4,5-dimethylthiazol-2-yl)-2,5-diphenyltetrazolium bromide) and resazurin assays on solid tumour cell lines (including GBM cell lines) and leukemia cell lines, respectively, as previously reported (Wang S et al., J Med Chem 47:1662-1675, 2004; and Diab S. et al. CheMedChem 9:962-972, 2014).
Background: The colour change of resazurin is a common sign of viable cells or microbes.

The next data set has as its system PANC1. As to the kind of experiment: MTT proliferation assay, pancreas. It counts as cell-based. As to conditions: Homo sapiens, PANC-1, 72 h, read-out: Antiproliferative activity GI50 PANC1.
Excerpt: as §1

For another data set, the system named is U87 GBM cells. As to the kind of experiment: Subcutaneous U87 GBM xenograft, single agents. It counts as in vivo. From the text:
Compound 1 and compound 2 were also investigated for in vivo antitumour activity in subcutaneous xenograft models. Briefly, U87 GBM cells were harvested and resuspended in a 1:1 mixture of serum-free media and matrigel, and 5×10^6 cells injected subcutaneously into the rear flank of 5-6-week-old CD1 nu/nu female mice. When the mean tumour volume reached 150-200 mm^3, animals were randomised to treatment groups (n=10 per group) and treated orally with vehicle (0.5% carboxymethyl cellulose in water), compound 1 or compound 2 daily for 21 days with the doses shown in FIGS. 5A and 5B. Mice were observed daily for signs of toxicity and weight loss, and tumour volume measured every other day.

The test system of the next data set is H460. The data set is described as follows: MTT proliferation assay, lung. It counts as cell-based. As to conditions: Homo sapiens, NCI-H460, 72 h, read-out: Antiproliferative activity GI50 H460.
Excerpt: as §1

Broadly, the GI50 is the concentration that inhibits growth by half. As usually defined, the T/C is the ratio of treated to control. For the compound `CNc1nc(C)c(-c2nc(Nc3ccc(N4CCC(N(C)C)CC4)cn3)ncc2F)s1` [Compound 1, 5-(2-((5-(4-(dimethylamino)piperidin-1-yl)pyridin-2-yl)amino)-5-fluoropyrimidin-4-yl)-N,4-dimethylthiazol-2-amine], the “inhibition of tumour growth (bioluminescent imaging)” value in data set [1] is reported as “significant inhibition of tumour growth either as a single agent or in combination with TMZ”. In addition, the “level of phosphorylated Rb proteins” value in data set [2] was “reduces the level of phosphorylated Rb proteins”. Also, the GI50 worked out at 0.11 µM with MV4-11, 1.32 µM in the data set on PANC1 and 3.28 µM in the data set on H460. Besides, the T/C in the data set on U87 GBM cells (day 21, oral daily for 21 days, vs vehicle, p<0.001) was 310%. Further, the “tumour growth compared to vehicle treatment” value with U87 GBM cells (oral daily for 21 days) is given as “markedly reduced tumour growth”. Further, the toxicity result with U87 GBM cells (oral daily for 21 days, observed daily for signs of toxicity and weight loss) is recorded as “without any overt toxicity”.

The values are drawn from patent US20230181580A1, “TREATMENT OF PROLIFERATIVE DISEASES OF THE CNS” (AUCENTRA THERAPEUTICS PTY LTD, priority 2020, published 2023).
